The experiment has as its target mouse brain RyR2 (Mus musculus, UniProt E9Q401). The experiment can be described thus: Single-channel current recordings of RyR2 incorporated in artificial lipid bilayer.

Sequence of mouse brain RyR2 (E9Q401 whole entry): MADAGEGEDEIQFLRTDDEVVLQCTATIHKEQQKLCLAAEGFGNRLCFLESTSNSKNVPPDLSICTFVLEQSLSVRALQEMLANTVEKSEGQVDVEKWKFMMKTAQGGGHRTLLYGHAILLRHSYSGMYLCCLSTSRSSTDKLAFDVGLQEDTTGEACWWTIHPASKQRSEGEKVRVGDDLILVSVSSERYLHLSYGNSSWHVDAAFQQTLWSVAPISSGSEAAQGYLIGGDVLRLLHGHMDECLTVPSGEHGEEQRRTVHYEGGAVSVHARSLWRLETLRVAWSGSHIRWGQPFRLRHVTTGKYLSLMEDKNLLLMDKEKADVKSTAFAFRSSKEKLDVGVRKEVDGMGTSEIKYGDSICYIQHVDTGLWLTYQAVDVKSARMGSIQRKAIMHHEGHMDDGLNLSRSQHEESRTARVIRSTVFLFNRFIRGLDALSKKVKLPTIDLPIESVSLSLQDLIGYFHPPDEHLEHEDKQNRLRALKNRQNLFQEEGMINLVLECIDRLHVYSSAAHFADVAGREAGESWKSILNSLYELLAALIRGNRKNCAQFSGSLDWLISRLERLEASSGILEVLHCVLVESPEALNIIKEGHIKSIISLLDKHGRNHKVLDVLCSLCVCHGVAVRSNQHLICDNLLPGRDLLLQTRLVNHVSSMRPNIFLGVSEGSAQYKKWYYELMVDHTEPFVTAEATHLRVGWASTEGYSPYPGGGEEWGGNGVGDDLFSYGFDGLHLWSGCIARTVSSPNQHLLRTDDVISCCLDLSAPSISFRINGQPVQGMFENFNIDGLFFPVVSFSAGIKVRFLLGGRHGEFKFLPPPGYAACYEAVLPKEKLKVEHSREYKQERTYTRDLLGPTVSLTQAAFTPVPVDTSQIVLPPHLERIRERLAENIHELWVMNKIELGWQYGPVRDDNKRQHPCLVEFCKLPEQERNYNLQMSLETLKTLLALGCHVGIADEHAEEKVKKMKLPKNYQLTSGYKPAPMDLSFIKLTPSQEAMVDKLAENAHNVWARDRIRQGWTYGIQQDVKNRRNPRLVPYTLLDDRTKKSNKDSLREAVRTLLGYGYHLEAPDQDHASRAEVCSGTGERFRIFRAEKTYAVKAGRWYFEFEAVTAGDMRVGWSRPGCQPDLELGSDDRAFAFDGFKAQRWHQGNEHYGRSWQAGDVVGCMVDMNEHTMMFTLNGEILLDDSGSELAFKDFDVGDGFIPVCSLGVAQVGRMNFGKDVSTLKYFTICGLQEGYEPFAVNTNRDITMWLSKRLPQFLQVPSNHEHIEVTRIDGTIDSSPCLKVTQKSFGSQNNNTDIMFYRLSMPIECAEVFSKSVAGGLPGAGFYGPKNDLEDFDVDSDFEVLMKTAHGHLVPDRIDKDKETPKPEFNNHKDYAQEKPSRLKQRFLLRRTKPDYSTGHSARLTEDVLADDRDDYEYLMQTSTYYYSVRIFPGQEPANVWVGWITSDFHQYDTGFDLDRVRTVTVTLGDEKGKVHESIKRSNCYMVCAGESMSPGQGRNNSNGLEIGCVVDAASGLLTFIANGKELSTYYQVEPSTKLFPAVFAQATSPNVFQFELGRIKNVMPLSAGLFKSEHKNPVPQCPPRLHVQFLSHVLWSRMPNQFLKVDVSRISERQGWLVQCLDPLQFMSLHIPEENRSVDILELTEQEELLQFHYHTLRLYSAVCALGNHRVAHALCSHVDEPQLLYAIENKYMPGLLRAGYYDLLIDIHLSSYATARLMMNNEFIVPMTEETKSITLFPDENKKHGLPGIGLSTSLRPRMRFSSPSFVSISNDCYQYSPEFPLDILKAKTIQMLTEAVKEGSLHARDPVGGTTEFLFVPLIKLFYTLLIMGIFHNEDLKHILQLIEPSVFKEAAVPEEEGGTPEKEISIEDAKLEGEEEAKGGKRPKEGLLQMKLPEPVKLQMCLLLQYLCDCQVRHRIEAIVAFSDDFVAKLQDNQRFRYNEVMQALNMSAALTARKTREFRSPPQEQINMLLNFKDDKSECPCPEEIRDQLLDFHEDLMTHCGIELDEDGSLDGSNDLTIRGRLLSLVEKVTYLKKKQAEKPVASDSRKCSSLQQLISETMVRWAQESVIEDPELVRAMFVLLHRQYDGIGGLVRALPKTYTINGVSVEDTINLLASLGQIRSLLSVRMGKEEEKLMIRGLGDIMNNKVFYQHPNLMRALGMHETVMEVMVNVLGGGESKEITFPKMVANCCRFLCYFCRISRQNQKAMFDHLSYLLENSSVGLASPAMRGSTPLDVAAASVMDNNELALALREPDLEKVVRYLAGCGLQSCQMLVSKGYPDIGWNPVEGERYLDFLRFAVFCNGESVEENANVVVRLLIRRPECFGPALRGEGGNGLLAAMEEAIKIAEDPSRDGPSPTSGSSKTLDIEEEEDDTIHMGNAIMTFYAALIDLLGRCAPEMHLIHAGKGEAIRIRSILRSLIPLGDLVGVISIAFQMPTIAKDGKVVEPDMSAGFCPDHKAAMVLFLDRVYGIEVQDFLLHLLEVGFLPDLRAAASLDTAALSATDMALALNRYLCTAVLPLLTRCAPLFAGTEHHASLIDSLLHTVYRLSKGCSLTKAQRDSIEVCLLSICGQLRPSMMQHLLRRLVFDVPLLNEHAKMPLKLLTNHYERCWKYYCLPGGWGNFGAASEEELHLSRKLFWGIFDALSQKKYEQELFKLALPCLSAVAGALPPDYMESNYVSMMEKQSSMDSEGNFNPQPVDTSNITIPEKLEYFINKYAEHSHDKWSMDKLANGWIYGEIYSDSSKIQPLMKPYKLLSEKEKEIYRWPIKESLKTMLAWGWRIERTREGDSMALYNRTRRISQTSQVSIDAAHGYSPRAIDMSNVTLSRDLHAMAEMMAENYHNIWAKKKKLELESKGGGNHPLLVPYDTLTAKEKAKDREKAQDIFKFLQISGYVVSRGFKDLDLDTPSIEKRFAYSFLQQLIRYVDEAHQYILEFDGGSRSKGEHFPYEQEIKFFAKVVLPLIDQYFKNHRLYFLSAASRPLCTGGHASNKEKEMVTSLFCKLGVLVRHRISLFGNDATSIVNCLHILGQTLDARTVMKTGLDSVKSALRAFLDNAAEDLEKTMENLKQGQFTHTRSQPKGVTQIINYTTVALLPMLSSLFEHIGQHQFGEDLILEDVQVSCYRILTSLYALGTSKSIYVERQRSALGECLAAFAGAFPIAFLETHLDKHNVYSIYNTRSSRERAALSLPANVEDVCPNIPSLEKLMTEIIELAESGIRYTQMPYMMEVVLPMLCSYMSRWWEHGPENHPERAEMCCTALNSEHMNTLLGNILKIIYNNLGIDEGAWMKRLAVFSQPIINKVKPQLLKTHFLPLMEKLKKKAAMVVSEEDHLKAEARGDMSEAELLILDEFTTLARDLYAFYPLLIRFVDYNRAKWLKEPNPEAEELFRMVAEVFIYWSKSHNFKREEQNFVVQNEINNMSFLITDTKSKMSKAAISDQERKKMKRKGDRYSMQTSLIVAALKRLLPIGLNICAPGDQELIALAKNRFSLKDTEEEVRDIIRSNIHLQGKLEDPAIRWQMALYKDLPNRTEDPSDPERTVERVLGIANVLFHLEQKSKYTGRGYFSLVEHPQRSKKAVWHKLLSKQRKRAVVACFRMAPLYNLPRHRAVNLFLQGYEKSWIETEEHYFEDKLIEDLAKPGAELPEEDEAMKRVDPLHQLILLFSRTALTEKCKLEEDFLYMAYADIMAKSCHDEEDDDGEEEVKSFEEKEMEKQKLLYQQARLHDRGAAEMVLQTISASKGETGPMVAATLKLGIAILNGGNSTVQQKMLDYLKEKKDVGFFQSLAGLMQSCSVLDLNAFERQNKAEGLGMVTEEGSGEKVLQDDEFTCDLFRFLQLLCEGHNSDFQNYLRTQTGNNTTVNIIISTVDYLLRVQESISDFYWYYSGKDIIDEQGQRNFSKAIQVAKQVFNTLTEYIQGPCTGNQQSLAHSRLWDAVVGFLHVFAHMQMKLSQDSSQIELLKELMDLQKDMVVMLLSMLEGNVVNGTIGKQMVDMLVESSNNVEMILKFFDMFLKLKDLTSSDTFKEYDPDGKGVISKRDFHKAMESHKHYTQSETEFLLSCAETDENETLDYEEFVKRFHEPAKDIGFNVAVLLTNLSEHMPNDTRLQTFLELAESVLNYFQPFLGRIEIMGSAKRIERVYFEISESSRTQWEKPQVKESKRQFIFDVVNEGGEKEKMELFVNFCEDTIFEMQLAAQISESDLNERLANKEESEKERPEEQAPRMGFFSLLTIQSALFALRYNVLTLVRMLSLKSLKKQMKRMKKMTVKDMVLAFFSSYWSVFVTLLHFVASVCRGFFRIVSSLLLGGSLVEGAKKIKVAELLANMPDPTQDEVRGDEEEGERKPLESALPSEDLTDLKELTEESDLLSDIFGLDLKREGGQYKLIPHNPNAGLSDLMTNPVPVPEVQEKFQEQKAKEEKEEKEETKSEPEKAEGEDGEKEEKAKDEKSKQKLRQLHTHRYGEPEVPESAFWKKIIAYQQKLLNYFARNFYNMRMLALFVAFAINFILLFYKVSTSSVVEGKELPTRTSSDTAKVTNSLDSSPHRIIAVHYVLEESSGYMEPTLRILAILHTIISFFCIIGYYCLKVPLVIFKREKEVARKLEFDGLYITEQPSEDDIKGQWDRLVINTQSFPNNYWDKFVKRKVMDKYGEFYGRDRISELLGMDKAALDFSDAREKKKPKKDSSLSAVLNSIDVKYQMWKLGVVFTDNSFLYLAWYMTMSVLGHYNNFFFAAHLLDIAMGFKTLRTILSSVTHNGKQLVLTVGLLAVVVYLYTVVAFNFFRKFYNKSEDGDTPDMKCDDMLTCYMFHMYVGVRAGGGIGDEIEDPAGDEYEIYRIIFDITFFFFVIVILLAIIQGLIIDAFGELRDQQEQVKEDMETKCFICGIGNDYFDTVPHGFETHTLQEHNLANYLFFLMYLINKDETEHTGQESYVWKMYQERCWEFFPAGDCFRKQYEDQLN

Regarding `N.N.N.N.N.N.N.N.N.N.N.N.N.N.[Cl-].[Cl-].[Cl-].[Cl-].[Cl-].[Cl-].[O-2].[O-2].[Ru+3].[Ru+3].[Ru+4]` [Ruthenium Red], the “block of ERβ-activated RyR2 single channel currents” value (20 μM Ruthenium Red after ERβ (FIG. 1A)) is on record as “blocked”. Also, the RyR channel block result (25 μM ruthenium red after ERβ (FIG. 10A, 11A)) is “complete channel block”.

For the origin of these results see US20090075888A1, “Cardiovascular and Brain Cell Therapy Using Intracellular Ryanodine Receptor Modulation by the Estrogen Receptor Beta” (University of North Texas Health Science Center at Fort …, priority 2007, published 2009).
